Measurements from ChEMBL document CHEMBL1201862, “PubChem BioAssay data set” (2004).
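48-hour exposure; five concentrations; linearly interpolated endpoints. GI50 is the concentration that inhibits growth by half.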 Calls of active or inactive are those of the source. Rule as the data show it: active = GI50 up to about 1.1 µM and inactive = higher.

Experiments:
Test in all cases: growth of human tumour cells (NCI), 48 h
UACC-62 = tested on: UACC-62
CCRF-CEM = tested on: CCRF-CEM
TK-10 = tested on: TK-10
SNB-75 = tested on: SNB-75
SF-295 = tested on: SF-295
HT-29 = tested on: HT-29
RXF 393 = tested on: RXF 393
SK-MEL-5 = tested on: SK-MEL-5
EKVX = tested on: EKVX
CAKI-1 = tested on: CAKI-1
HOP-62 = tested on: HOP-62
IGROV-1 = tested on: IGROV-1
HCT-15 = tested on: HCT-15
OVCAR-8 = tested on: OVCAR-8
COLO 205 = tested on: COLO 205
SF-268 = tested on: SF-268
SNB-19 = tested on: SNB-19

Row | Compound | GI50 (UACC-62) | GI50 (CCRF-CEM) | GI50 (TK-10) | GI50 (SNB-75) | GI50 (SF-295) | GI50 (HT-29) | GI50 (RXF 393) | GI50 (SK-MEL-5) | GI50 (EKVX) | GI50 (CAKI-1) | GI50 (HOP-62) | GI50 (IGROV-1) | GI50 (HCT-15) [µM] | GI50 (OVCAR-8) | GI50 (COLO 205) | GI50 (SF-268) | GI50 (SNB-19)
1 | O=C1CC(c2c[nH]c3ccccc23)C(=O)N1 (configuration not stated) | > 100 µM (inactive) | > 100 µM (inactive) | > 100 µM (inactive) | > 100 µM (inactive) | > 100 µM (inactive) | > 100 µM (inactive) | > 100 µM (inactive) | > 100 µM (inactive) | > 100 µM (inactive) | > 100 µM (inactive) | > 100 µM (inactive) | > 100 µM (inactive) | > 100 | > 100 µM (inactive) |  |  | 
2 | CN1CN(C2OC(CO)C(O)C2O)c2nc(N)[nH]c(=O)c21 (configuration not stated) | > 100 µM (inactive) |  | > 100 µM (inactive) | > 100 µM (inactive) | > 100 µM (inactive) | > 100 µM (inactive) | > 100 µM (inactive) | > 100 µM (inactive) | > 100 µM (inactive) | > 100 µM (inactive) | > 100 µM (inactive) | > 100 µM (inactive) | > 100 | > 100 µM (inactive) | > 100 µM (inactive) | > 100 µM (inactive) | > 100 µM (inactive)
3 | CCC(=O)NCC1(c2c[nH]c3ccccc23)SCCS1 | 63.4 µM (inactive) | > 100 µM (inactive) | > 100 µM (inactive) | > 100 µM (inactive) | > 100 µM (inactive) | 53 µM (inactive) |  | > 100 µM (inactive) | > 100 µM (inactive) | > 100 µM (inactive) | > 100 µM (inactive) | > 100 µM (inactive) | > 100 | > 100 µM (inactive) | > 100 µM (inactive) | > 100 µM (inactive) | > 100 µM (inactive)
4 | CCOC(=O)CC1=Nc2ccccc2SC1 | > 100 µM (inactive) |  | > 100 µM (inactive) | > 100 µM (inactive) | > 100 µM (inactive) | > 100 µM (inactive) | > 100 µM (inactive) | > 100 µM (inactive) | > 100 µM (inactive) | > 100 µM (inactive) | > 100 µM (inactive) | > 100 µM (inactive) | > 100 | > 100 µM (inactive) | > 100 µM (inactive) | 0.031 µM (active) | > 100 µM (inactive)
5 | C[C@]12CC/C(=N\O)C=C1CC[C@@H]1C2CC[C@@]2(C)C1CC[C@@H]2OC1CCCCO1 (some centres not stated) | > 10 µM (inactive) |  | 22.8 µM (inactive) | 18.9 µM (inactive) | 18.5 µM (inactive) | 14.3 µM (inactive) | 25.4 µM (inactive) | 32.1 µM (inactive) | 17.7 µM (inactive) | > 10 µM (inactive) | 31.2 µM (inactive) | 35.6 µM (inactive) | 20.1 | > 100 µM (inactive) | 17.4 µM (inactive) | 23.3 µM (inactive) | 18.3 µM (inactive)
6 | COC(=O)/C(=N\Nc1nc(S)nn1N)C(C#N)c1ccc(Cl)cc1 (configuration not stated) | > 100 µM (inactive) |  | > 100 µM (inactive) | > 100 µM (inactive) | > 100 µM (inactive) | > 100 µM (inactive) | > 100 µM (inactive) |  | > 100 µM (inactive) | > 100 µM (inactive) | > 100 µM (inactive) | > 100 µM (inactive) | > 100 | > 100 µM (inactive) | > 100 µM (inactive) | > 100 µM (inactive) | > 100 µM (inactive)
7 | N/N=c1/nc2n(c3ncccc13)C=CNN2 | > 100 µM (inactive) | > 100 µM (inactive) | > 100 µM (inactive) |  | > 100 µM (inactive) | > 100 µM (inactive) | > 100 µM (inactive) | > 100 µM (inactive) | > 100 µM (inactive) | > 100 µM (inactive) | > 100 µM (inactive) | > 100 µM (inactive) | > 100 | > 100 µM (inactive) | > 100 µM (inactive) | > 100 µM (inactive) | > 100 µM (inactive)
8 | Cc1cc(C)nc(NS(=O)(=O)c2ccc(Nc3c4ccccc4nc4c(C(=O)NCCN(C)C)ccc(Cl)c34)cc2)n1 | 1.74 µM (inactive) | 1.31 µM (inactive) | 5.07 µM (inactive) | 2.59 µM (inactive) | 1.45 µM (inactive) | 0.659 µM (active) | 2.09 µM (inactive) | 4.38 µM (inactive) | 4.4 µM (inactive) |  | 2.85 µM (inactive) | 2.06 µM (inactive) | 2.78 | 0.681 µM (active) | 1.06 µM (active) | 1.51 µM (inactive) | 1.45 µM (inactive)
9 | COCC1C(=O)c2cc3c(cc2C12C=CC1(C=C2)OCCO1)OCO3 (configuration not stated) | 12.2 µM (inactive) | 0.583 µM (active) | 20.6 µM (inactive) | 14.9 µM (inactive) | 14.4 µM (inactive) | 3.94 µM (inactive) | 8.85 µM (inactive) | > 10 µM (inactive) | 16.6 µM (inactive) | 15.9 µM (inactive) | 21.6 µM (inactive) | 15.4 µM (inactive) | 1.6 | 3.58 µM (inactive) | 10.3 µM (inactive) | 3.86 µM (inactive) | 
10 | CC(=O)CCC1(c2ccccc2)OC(=O)C(C#N)=C1c1ccccc1 (configuration not stated) | > 100 µM (inactive) | 43.5 µM (inactive) | > 100 µM (inactive) | 29.4 µM (inactive) | > 100 µM (inactive) | > 100 µM (inactive) |  | > 100 µM (inactive) | > 100 µM (inactive) |  | > 100 µM (inactive) | > 100 µM (inactive) | > 100 | > 100 µM (inactive) | > 100 µM (inactive) | 70 µM (inactive) | > 100 µM (inactive)
11 | COC(=O)/C(C#N)=C1\CCC(Nc2cccc(C(F)(F)F)c2)N1C (configuration not stated) | 61 µM (inactive) | > 100 µM (inactive) | > 100 µM (inactive) | 43.3 µM (inactive) | > 100 µM (inactive) | > 100 µM (inactive) | 46.1 µM (inactive) |  | > 100 µM (inactive) | > 100 µM (inactive) | > 100 µM (inactive) | > 100 µM (inactive) |  | > 100 µM (inactive) |  | > 100 µM (inactive) | > 100 µM (inactive)
12 | O=C(/C(=C\c1ccc(Cl)cc1)c1ccccc1)c1ccccc1 | > 100 µM (inactive) | > 100 µM (inactive) | > 100 µM (inactive) | 88.9 µM (inactive) | 94.4 µM (inactive) | 43.8 µM (inactive) |  |  | 39.3 µM (inactive) |  | 63.2 µM (inactive) | > 100 µM (inactive) | 90.4 | > 100 µM (inactive) | > 100 µM (inactive) | > 100 µM (inactive) | 
13 | COc1c(C)cc2c(c1O)C1C3[C@H]4SC[C@@]5(NCCC6=C5NC5C=CC=CC65)C(=O)OCC(c5c6c(c(C)c(OC(C)=O)c54)OCO6)N3[C@@H](O)C(C2)N1C (some centres not stated) | < 0.01 µM (active) | < 0.01 µM (active) | < 0.01 µM (active) | < 0.01 µM (active) | < 0.01 µM (active) | < 0.01 µM (active) | < 0.01 µM (active) | < 0.01 µM (active) | 0.0297 µM (active) |  | < 0.01 µM (active) | < 0.01 µM (active) | < 0.01 | < 0.01 µM (active) | < 0.01 µM (active) | < 0.01 µM (active) | < 0.01 µM (active)
14 | NC(CSSCC(N)Cc1ccccc1)Cc1ccccc1 (configuration not stated) | 23.1 µM (inactive) | 32.9 µM (inactive) | > 100 µM (inactive) | > 10 µM (inactive) | 41.5 µM (inactive) | 44 µM (inactive) |  | 24 µM (inactive) | 47.5 µM (inactive) |  | > 100 µM (inactive) | > 100 µM (inactive) | 66.7 | 51.3 µM (inactive) | 32.7 µM (inactive) | 49.4 µM (inactive) | > 100 µM (inactive)
15 | Cc1cc(Br)cc(C)c1NC(=O)C(=O)C(C(=O)c1ccncc1)C1OC(=O)c2ccccc21 (configuration not stated) | > 100 µM (inactive) | > 100 µM (inactive) | > 100 µM (inactive) |  |  |  | > 100 µM (inactive) |  | > 100 µM (inactive) | > 100 µM (inactive) | > 100 µM (inactive) | > 100 µM (inactive) | > 100 | > 100 µM (inactive) | > 100 µM (inactive) | > 100 µM (inactive) | > 100 µM (inactive)
16 | CCCCCCC(=O)OC[n+]1ccc2c(C)c3[nH]c4ccccc4c3c(C)c2c1 | 2.72 µM (inactive) |  | 3.13 µM (inactive) | 1.85 µM (inactive) | 0.836 µM (active) | 0.347 µM (active) | 1 µM (active) | 1.56 µM (inactive) | 0.403 µM (active) | 1.58 µM (inactive) | 2.08 µM (inactive) | 1.47 µM (inactive) | 0.348 | 0.34 µM (active) |  | 0.61 µM (active) | 
17 | CCOC1=NC(=O)CC(c2ccccc2)S1 (configuration not stated) | > 100 µM (inactive) | 69.3 µM (inactive) |  |  | > 100 µM (inactive) | > 100 µM (inactive) | 36.4 µM (inactive) | > 100 µM (inactive) | > 100 µM (inactive) | > 100 µM (inactive) |  | > 100 µM (inactive) | > 100 | > 100 µM (inactive) | > 100 µM (inactive) | > 100 µM (inactive) | > 100 µM (inactive)
18 | CCCCCCCCCC(=O)NC(Cc1ccc(O)cc1)C(=O)NCCCNCCCCNCCCNC(=O)[C@@H](N)CCCN=C(N)N (some centres not stated) |  | 84.9 µM (inactive) | 46.9 µM (inactive) |  | 29 µM (inactive) | > 100 µM (inactive) |  | 12.8 µM (inactive) | 30.1 µM (inactive) |  | 22.9 µM (inactive) | 17.9 µM (inactive) | 86.7 | 33.6 µM (inactive) | 13.8 µM (inactive) | 82.2 µM (inactive) | 70.1 µM (inactive)
19 | CSc1c([S+](C)[O-])[nH]c2cc(Br)cc(Br)c12 (configuration not stated) | 17.9 µM (inactive) | 22.2 µM (inactive) | 27.8 µM (inactive) | 17.3 µM (inactive) | 17.1 µM (inactive) | 26.9 µM (inactive) | 14 µM (inactive) | 18.3 µM (inactive) | 14.3 µM (inactive) | 25.1 µM (inactive) |  | 37.1 µM (inactive) | 22.8 | 22 µM (inactive) | 18 µM (inactive) |  | 
